What was measured:
[1] = tested on: cyclin D1; experiment: RT-PCR of cyclin D1 mRNA in treated PC-3 cells; format: cell-based, human; settings: 5 μM, 24 hours
Experimental: Representative photograph of an experiment repeated thrice. PC-3 cells were treated 24 hours with either 15 μM for compounds 6, 7, 7a, 8, 9, 10 or 5 μM for compound KED-4-69 (compound 6a) before RNA extraction and RT-PCR amplification.
Reverse Transcriptase-polymerase Chain Reaction (RT-PCR). From PC-3 cells incubated 24 hours with either 15 μM of compound 6, 7, 7a, 8, 9, 10 or 5 μM of KED-4-69 (compound 6a), RNA was extracted with TRIzol solution (Invitrogen, Carlsbad, Calif.) and genes of interest were amplified using 500 ng of total RNA reverse-transcribed to cDNA using a Superscript II kit (Invitrogen) with random hexamers. Human-specific primers were designed using the Primer Quest program and purchased from Integrated DNA Technologies, Inc. (Coralville, Iowa). Their sequences and product band sizes are: cyclin D1 forward primer 5′-[…]-3′ (SEQ ID NO:1), cyclin D1 reverse primer 5′-[…]-3′ (SEQ ID NO:2) (475 bp) and GAPDH forward primer: 5′-CCA […]-3′ (SEQ ID NO:3), GAPDH reverse primer: 5′-TCTAGACGGCAG GTCAGGTCCACC-3′ (SEQ ID NO:4) (598 bp). PCRs were initiated at 94° C. for 2 min, followed by 28 cycles of 94° C. for 1 min, 1 min annealing temperature, 72° C. for 1 min, and final extension at 72° C. for 5 min. The annealing temperature for cyclin D1 and GAPDH was 60° C. Primers and PCR conditions for RASSF1A are used as described by Rong et al. (Oncogene. 2004, 23, 8216-8230). After amplification, PCR products were separated on 1.5% agarose gels and visualized by ethidium bromide fluorescence using the Fuji LAS-1000 Imager. Images were captured and imported to Adobe Photoshop. Band intensities were quantified by using ImageJ software (NIH, Bethesda, Md.).
It has been reported that mRNA levels of RASSF1A correlate to its protein expression levels (Rong et al. Oncogene, 2004, 23: 8216-8230). To investigate the effects of the synthetic compounds on RASSF1A and cyclin D1 expression, levels of the respective mRNAs in treated cells compared to control were analyzed (FIG. 3). […] Because overexpression of cyclin D1 is associated with tumorigenicity and proliferation in a variety of tumors, including prostate cancers, this downregulation provides a cancer treatment method (Chen, Y. et al. Oncogene. 1998, 16, 1913-1920; Musgrove, E. A. et al. Proc. Natl. Acad. Sci. USA. 1994, 91, 8022-8026).

[2] = molecular target: T1, DNMT3b (Homo sapiens, UniProt Q9UBC3); experiment: Multiphoton laser imaging, DNMT3b antibody staining; format: cell-based; settings: PC-3 cells, 5 μM
T1 construct: endogenous in cells; host or cells: PC-3 human prostate cancer cells
Experimental: (A) Fluorescent spectrum of compound 6a; (B) PC-3 cells were treated with a 5 μM solution of compound 6a for 1 hr before being fixed and stained with propidium iodide and DNMT3b antibody; (C) Cells were treated with a 5 μM solution of compound 6a for 6 hr before fixation; (D) Cells were treated with a 5 μM solution of DMSO for 6 hr before fixation. The frames in each set of images are from left to right, top to bottom: propidium iodide; clear field; DNA methyltransferase 3b (DNMT3b); compound 6a or vehicle; and merged. Compound 6a was excited at 725 nm with a multiphoton laser and imaged with a 500-550 nm filter. Arrows indicate representative cells in which DNMT3b is solely in the cytoplasm.
(§1) Multiphoton laser imaging. After incubating slides with a fibronectin/cortactin solution for 30 minutes, PC-3 cells were plated onto the slides and incubated overnight. The cells were then treated with a 5 μM solution of compound 6a or DMSO control and incubated for 1-6 hour before washing with PBS. The slides were fixed with a 4% formaldehyde solution, washed with PBS then treated with propidium iodide (nuclear localization) and DNMT3a or DNMT3b. The compound was excited at 725 nm with a multiphoton laser and imaged with a 500-550 nm filter.
The dansyl moiety present in compound 6a allows it to visibly fluoresce at 552 nm when excited at 370 nm (FIG. 4A). […]

[3] = molecular target: T2, DNMT3a (Homo sapiens, UniProt Q9Y6K1); experiment: Multiphoton laser imaging, DNMT3a antibody staining; format: cell-based; settings: PC-3 cells, 5 μM (data not shown)
T2 construct: treated with propidium iodide (nuclear localization) and DNMT3a or DNMT3b; endogenous in cells; host or cells: PC-3 human prostate cancer cells
T2 sequence (Q9Y6K1 whole entry, looked up): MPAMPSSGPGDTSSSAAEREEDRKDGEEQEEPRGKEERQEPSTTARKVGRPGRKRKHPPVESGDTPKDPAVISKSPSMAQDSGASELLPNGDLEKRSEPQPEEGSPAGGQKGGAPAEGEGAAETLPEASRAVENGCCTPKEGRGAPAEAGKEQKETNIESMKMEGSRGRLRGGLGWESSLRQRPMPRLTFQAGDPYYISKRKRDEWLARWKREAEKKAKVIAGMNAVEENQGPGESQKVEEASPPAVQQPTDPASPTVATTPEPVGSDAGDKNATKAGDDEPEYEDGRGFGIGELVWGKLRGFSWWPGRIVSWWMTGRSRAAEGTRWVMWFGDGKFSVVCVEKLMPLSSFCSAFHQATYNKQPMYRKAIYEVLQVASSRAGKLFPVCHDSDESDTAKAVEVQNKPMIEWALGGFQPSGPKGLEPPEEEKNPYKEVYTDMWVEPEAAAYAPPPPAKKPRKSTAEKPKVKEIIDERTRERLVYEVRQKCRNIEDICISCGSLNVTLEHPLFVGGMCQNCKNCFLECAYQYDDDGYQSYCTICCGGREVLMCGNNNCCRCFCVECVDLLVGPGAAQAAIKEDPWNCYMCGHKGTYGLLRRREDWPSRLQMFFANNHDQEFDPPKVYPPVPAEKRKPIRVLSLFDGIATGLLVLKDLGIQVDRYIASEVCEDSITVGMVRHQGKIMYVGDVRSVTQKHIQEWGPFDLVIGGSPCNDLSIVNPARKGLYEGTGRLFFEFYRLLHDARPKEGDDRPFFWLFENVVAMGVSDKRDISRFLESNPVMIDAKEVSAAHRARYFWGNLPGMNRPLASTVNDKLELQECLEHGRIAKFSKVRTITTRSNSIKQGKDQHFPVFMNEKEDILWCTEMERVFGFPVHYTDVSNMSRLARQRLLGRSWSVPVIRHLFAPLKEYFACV
Experimental: as §1
The dansyl moiety present in compound 6a allows it to visibly fluoresce at 552 nm when excited at 370 nm (FIG. 4A). After treating PC-3 cells with compound 6a, a multiphoton laser was used to excite the compound, and its emission from within the cells was observed by confocal microscopy (FIG. 4B-D). […] To further confirm the hypothesis that compound 6a interaction with DNMT is a crucial factor in the ultimate up-regulation of RASSF1A, the cell samples were stained with antibodies for the DNMT isoforms known to shuttle between the nucleus and the cytoplasm, DNMT3a and DNMT3b (Kim et al., EMBO J, 2002, 21: 4183-4195; Majumber et al., JBC, 2002, 277: 16048-16058). […] Thus, cytoplasmic sequestering of DNMT3b is implied as a mode of action for compound 6a.

[4] = tested on: human prostate tumor xenografts (PC-3); experiment: PC-3 human prostate xenograft study; format: in vivo, mouse; settings: athymic Balb/c nude mice, 10 mg/kg IP every other day, over 25 days
Experimental: Male athymic Balb/c nude mice were injected with PC-3 cells and the resulting tumors allowed to grow for a week before dosing IP once a day every other day with 10 mg/kg compound 6a or DMSO control in 1:1 PEG/PBS. Data are presented as the mean±SEM (n=4).
Cell Culture for Xenograft. PC-3 cell line (ATCC, Manassas, Va.) was cultured in RPMI-1640 with L-glutamine (Mediatech Inc., Herdon, Va.) containing 5% fetal bovine serum (FBS), 2.5 mM L-glutamine at 37° C. with 5% CO2.
Xenograft Study. Male athymic Balb/c nude mice (18-22 g) were injected with 3×106 (0.3 mL) of the human prostate cancer cells (PC-3). The human prostate cancer cells were injected in the subcutaneous tissue of the right axillary region of the mice. One week after the injection, the mice were randomly sorted into two groups with four mice per group. A stock solution of compound 6a was obtained by dissolving 1 mg of compound in 1 μl DMSO. The stock was added to polyethylene glycol 400 (PEG) (Hampton) and PBS in a 1:1 ratio. The test concentrations were obtained by diluting with PEG/PBS. The tumor-bearing mice received an intraperitoneal injection (IP) with either 10 mg/kg of 6a or vehicle control once every other day for 4 weeks. At the same time, the tumor size of each mouse was measured by caliper and calculated by the formula: Length×width×height/2. […]

`COc1ccc2c(c1)[nH]c1c(C)c(OS(=O)(=O)c3cccc4c(N(C)C)cccc34)ccc12` [Compound 6a, 7-Methoxy-1-methyl-9H-carbazol-2-yl 5-(dimethylamino)naphthalene-1-sulfonate] was tested, and the “cyclin D1 mRNA level versus control” value [1] was “corresponding decrease in cyclin D1”, the DNMT3b localization ([2]; one hour) was “a population of treated cells that have DNMT3b only in the cytoplasm” and the DNMT3b localization ([2]; six hours) was “majority of treated cells having DNMT3b only in the cytoplasm”. The DNMT3a localization [3] was “No corresponding effect was seen with DNMT3a” and the “reduction of tumor volume compared to control” value [4] was “roughly 40%”.
